Holding throughout (format): in vivo
One assay relates to Sorghum. Kind of assay: whole plant or invertebrate.
The subject of another assay is cockspur grass. Put plainly: whole plant or invertebrate. The note with it: Echinochloa crus-galli.
In a further assay the test system is Abutilon theophrasti. Put plainly: whole plant or invertebrate. The settings on record: Abutilon theophrasti, 600 h, read-out: Postemergence weed clearing activity, Abutilon theophrasti.
In a further assay the test system is Eclipta prostrata. Put plainly: whole plant or invertebrate. The settings on record: for pest or weed control at 150 g/ha: Eclipta prostrata, 600 h, read-out: weed clearing activity, Eclipta prostrata Postemergence.
A further assay has as its system Amaranthus retroflexus. Put plainly: whole plant or invertebrate. The note with it: Amaranthus retroflexus, 600 h, read-out: weed clearing activity, Amaranthus retroflexus Postemergence.
A further assay deals with Radish. Kind of assay: whole plant or invertebrate. The note with it: Raphanus sativus.
The subject of a further assay is Cucumber. Kind of assay: whole plant or invertebrate. The settings on record: Cucumis sativus.
The next assay deals with Capsella bursa-pastoris. Kind of assay: whole plant or invertebrate. The note with it: 600 h, read-out: weed clearing activity, Capsella bursa-pastoris Postemergence.
For the next assay, the system named is rape. Put plainly: animal or person.
The subject of the next assay is Wheat. Kind of assay: whole plant or invertebrate. The note with it: Triticum aestivum.
Setting [1] is: read-out: inhibitory activity, Sorghum Root.
The mark [2] stands for this setting: read-out: inhibitory activity, Sorghum Stem.
Where [3] appears, read: read-out: inhibitory activity, Cockspur grass Root.
Where [4] appears, read: read-out: inhibitory activity, Cockspur grass Stem.
[5] abbreviates: read-out: inhibitory activity, Radish Root.
Where [6] appears, read: read-out: inhibitory activity, Radish Stem.
The mark [7] stands for this setting: read-out: inhibitory activity, Cucumber Root.
Setting [8] is: read-out: inhibitory activity, Cucumber Stem.
Where [9] appears, read: read-out: inhibitory activity, Rape Root.
Where [10] appears, read: read-out: inhibitory activity, Rape Stem.
[11] abbreviates: read-out: inhibitory activity, Wheat Root.
Setting [12] is: read-out: inhibitory activity, Wheat Stem.

Here are results for four molecules from patent US9029542B2 (priority 2011, dated 2015).

Where two headings read alike, the source gives them in different places.

Consider `Cc1cc(OCC(=O)OC(C)P2(=O)OCC(C)(C)CO2)ccc1Cl` (centres unmarked) [Compound 32, 2-(3-methyl-4-chlorophenoxyethylacyloxy)(methyl)methyl-5,5-dimethyl-1,3,2-dioxaphosphorinan-2-one phosphonate], for which the inhibition at 100 µg/mL in the assay with Sorghum (setting [1]) was 0%; in the assay on Sorghum (setting [2]) it was 0%; in the assay with cockspur grass (setting [3]) it was 0%; with cockspur grass (setting [4]) it was 0%; in the assay with Radish (setting [5]), 90%; with Radish (setting [6]), 60%. Also, the inhibition at 100 µg/mL with Cucumber (setting [7]) came to 60%; in the assay on Cucumber (setting [8]), 90%; in the assay with rape (setting [9]), 90%; in the assay on rape (setting [10]), 90%; with Wheat (setting [11]), 0%; in the assay on Wheat (setting [12]), 0%. The pest or weed control at 150 g/ha turned out to be 70% with Abutilon theophrasti, 60% in the assay with Eclipta prostrata, 60% with Amaranthus retroflexus and 70% in the assay with Capsella bursa-pastoris.
Consider `CC(Oc1ccc(Cl)cc1)C(=O)OC(C)P1(=O)OCC(C)(C)CO1` (centres unmarked) [Compound 38, 2-(4-chlorophenoxyisopropylacyloxy)(methyl)methyl-5,5-dimethyl-1,3,2-dioxaphosphorinan-2-one phosphonate], for which the inhibition at 100 µg/mL was found to be 0% with Sorghum (setting [1]); 0% in the assay on Sorghum (setting [2]); 0% with cockspur grass (setting [3]); 0% in the assay on cockspur grass (setting [4]); 70% with Radish (setting [5]); 30% in the assay on Radish (setting [6]). Moreover, the inhibition at 100 µg/mL came to 60% in the assay with Cucumber (setting [7]); 30% with Cucumber (setting [8]); 100% with rape (setting [9]); 100% in the assay with rape (setting [10]); 30% in the assay with Wheat (setting [11]); 30% in the assay on Wheat (setting [12]). For the same molecule, the pest or weed control at 150 g/ha came to 60% in the assay with Abutilon theophrasti, 60% in the assay on Eclipta prostrata, 50% with Amaranthus retroflexus and 70% in the assay on Capsella bursa-pastoris.
With `CC(Oc1ccc(Cl)cc1Cl)C(=O)OC(C)P1(=O)OCC(C)(C)CO1` (centres unmarked) [Compound 39, 2-(2,4-dichlorophenoxyisopropylacyloxy)(methyl)methyl-5,5-dimethyl-1,3,2-dioxaphosphorinan-2-one phosphonate], the inhibition at 100 µg/mL in the assay with Sorghum (setting [1]) was determined as 70%; in the assay on Sorghum (setting [2]) it was 60%; in the assay with cockspur grass (setting [3]), 0%; in the assay on cockspur grass (setting [4]), 0%; in the assay on Radish (setting [5]), 100%; in the assay on Radish (setting [6]) it was 30%. Besides, the inhibition at 100 µg/mL in the assay with Cucumber (setting [7]) came to 80%; in the assay with Cucumber (setting [8]), 30%; in the assay on rape (setting [9]), 100%; with rape (setting [10]) it was 40%; in the assay on Wheat (setting [11]) it was 60%; in the assay with Wheat (setting [12]), 60%. In addition, the pest or weed control at 150 g/ha in the assay on Abutilon theophrasti came out at 70%; with Eclipta prostrata, 60%; in the assay on Amaranthus retroflexus it was 70%; in the assay with Capsella bursa-pastoris it was 80%.
Take `CC(Oc1ccc(F)cc1Cl)C(=O)OC(C)P1(=O)OCC(C)(C)CO1` (centres unmarked) [Compound 41, 2-(2-chloro-4-fluorphenoxyisopropylacyloxy)(methyl)methyl-5,5-dimethyl-1,3,2-dioxaphosphorinan-2-one phosphonate]: the inhibition at 100 µg/mL was 70% in the assay with Sorghum (setting [1]); 70% in the assay on Sorghum (setting [2]); 0% in the assay on cockspur grass (setting [3]); 0% in the assay on cockspur grass (setting [4]); 80% in the assay with Radish (setting [5]); 60% in the assay with Radish (setting [6]). For the same molecule, the inhibition at 100 µg/mL worked out at 80% in the assay on Cucumber (setting [7]); 60% in the assay with Cucumber (setting [8]); 100% in the assay with rape (setting [9]); 90% in the assay with rape (setting [10]); 70% in the assay with Wheat (setting [11]); 40% in the assay on Wheat (setting [12]). For the same molecule, the pest or weed control at 150 g/ha in the assay on Abutilon theophrasti is 70%; in the assay on Eclipta prostrata it was 60%; with Amaranthus retroflexus, 60%; in the assay on Capsella bursa-pastoris, 90%. Besides, the “Weed clearing activity, Eclipta prostrata, Postemergence” value in the assay on Eclipta prostrata (in vivo) came to 60%.
